Six molecules from paper PMC5057115, “Cathelicidins in the Tasmanian devil (Sarcophilus harrisii)” (Scientific Reports, 2016) can be followed below.

In one data set the test system is human red blood cells. In kind it is cell-based. As to conditions: red cells of human, 24 h. The procedure: Tissue expression of devil cathelicidin prepropeptides was determined by real-time PCR on a range of secretory, immune, reproductive, gastrointestinal and respiratory tissues, as well as BLAST searches of the milk transcriptome. Opportunistic tissue samples for real-time PCR were collected from Taronga Zoo (Sydney) from devils which were subject to euthanasia due to old age and advanced disease. […] Ltd. and their antimicrobial activity against bacterial and fungal pathogens determined by broth microdilution susceptibility assay according to clinical laboratory standards institute guidelines. Antimicrobial activity was expressed as minimum inhibitory concentration (MIC). Cytotoxicity was assessed in the human cell line A549 and haemolytic activity determined against human blood. Statistical significance of peptide effect on cell survival in comparison to the untreated control was calculated using a one sample t-test. Pouch microbiome analysis was performed on swabs from the pouch of lactating and non-lactating devils to detect changes in microbe populations. Pouch swab collection was carried out in accordance with the Save the Tasmanian Devil Program and was approved by the Animal Ethics Committee of the University of Sydney (permit number 681). page 3: […] Two antibiotics, ampicillin and tetracycline, were included as a positive control for bacteria, and the […] A well containing cells and media only was used as a “no drug” control to ensure that cultures grew normally. Bacteria were subcultured on Mueller Hinton agar (MHA) or Sheep blood agar (BA) for 24 hours at 35 °C for Staphylococcus spp., Pseudomonas spp., Enterococcus spp. and E.coli, with 5% CO2 for Streptococcus spp., K.pneumoniae, P.multocida, […] Similarly, fungi were subcultured on Sabouraud agar (SAB) at 35 °C for 24 hours prior to the test. Colonies were resuspended in saline and the OD530 measured with a McFarland reader. If necessary the suspension was diluted to 0.45-0.55 McFarland units with saline. […] Assays Antimicrobial activity was expressed as minimum inhibitory concentration (MIC), which was defined as the lowest concentration of cathelicidin preventing visible growth, relative to the negative control. Colonies which grew on agar plates were also counted. Cytotoxicity Cytotoxicity was assessed in the human A549 cell line maintained in Dulbecco’s Modification of Eagle’s Medium (DMEM) supplemented with 10% foetal bovine serum (FBS), 2mM L -glutamine, 50units/mL penicillin and 50μg/mL streptomycin. […] Following incubation for a further 24 hours, cell viability was determined using alamar blue (Invitrogen) which was added to each well. […]

The subject of another data set is E. coli ATCC 25922. Kind of data set: microbe, parasite or virus in culture. In kind it is cell-based, Escherichia coli. As to conditions: Escherichia coli, ATCC25922; broth microdilution (CLSI), 64 to 0.125 μg/mL, 24 h at 35 °C, lowest concentration preventing visible growth; ATCC strain; read-out: MIC. As for the experimental part:
(§1) Tissue expression of devil cathelicidin prepropeptides was determined by real-time PCR on a range of secretory, immune, reproductive, gastrointestinal and respiratory tissues, as well as BLAST searches of the milk transcriptome. Opportunistic tissue samples for real-time PCR were collected from Taronga Zoo (Sydney) from devils which were subject to euthanasia due to old age and advanced disease. The mature peptides of all six devil cathelicidins were synthesised by ChinaPeptides Co. Ltd. and their antimicrobial activity against bacterial and fungal pathogens determined by broth microdilution susceptibility assay according to clinical laboratory standards institute guidelines. Antimicrobial activity was expressed as minimum inhibitory concentration (MIC). Cytotoxicity was assessed in the human cell line A549 and haemolytic activity determined against human blood. Statistical significance of peptide effect on cell survival in comparison to the untreated control was calculated using a one sample t-test. Pouch microbiome analysis was performed on swabs from the pouch of lactating and non-lactating devils to detect changes in microbe populations. Pouch swab collection was carried out in accordance with the Save the Tasmanian Devil Program and was approved by the Animal Ethics Committee of the University of Sydney (permit number 681). […]
(§2) base (YNB) for fungi, from a concentration of 64μg/mL to 0.125μg/mL in a final volume of 100 μL .
(§3) Two antibiotics, ampicillin and tetracycline, were included as a positive control for bacteria, and the antifungal drug fluconazole for fungi. A well containing cells and media only was used as a “no drug” control to ensure that cultures grew normally. Bacteria were subcultured on Mueller Hinton agar (MHA) or Sheep blood agar (BA) for 24 hours at 35 °C for Staphylococcus spp., Pseudomonas spp., Enterococcus spp. and E.coli, with 5% CO2 for Streptococcus spp., K.pneumoniae, P.multocida, L.monocytogenes and N.asteroides. Similarly, fungi were subcultured on Sabouraud agar (SAB) at 35 °C for 24 hours prior to the test. Colonies were resuspended in saline and the OD530 measured with a McFarland reader. If necessary the suspension was diluted to 0.45-0.55 McFarland units with saline. […] Assays Antimicrobial activity was expressed as minimum inhibitory concentration (MIC), which was defined as the lowest concentration of cathelicidin preventing visible growth, relative to the negative control. […]
(§4) 570nm and 620nm using the Victor 3 multilabel plate reader (PerkinElmer). […] To x i city of cathelicidins was calculated according to Invitrogen recommendations and expressed as percentage cell survival compared to the untreated growth control. […]
(§5) Haemolytic activity was assessed using 10mL of human blood collected into potassium -ED T A vacutainers (BD). […]

A further data set relates to E. faecalis ATCC 29212. Kind of data set: microbe, parasite or virus in culture. In kind it is cell-based, Enterococcus faecalis. As to conditions: Enterococcus faecalis, ATCC29212; broth microdilution (CLSI), 64 to 0.125 μg/mL, 24 h at 35 °C; ATCC strain; read-out: MIC. The procedure:
as §1, §2, §3, §4, §5

The next data set concerns S. pneumoniae ATCC 49619. The data set can be described thus: microbe, parasite or virus in culture. The class given is cell-based. As to conditions: Streptococcus pneumoniae, ATCC49619; broth microdilution (CLSI), 64 to 0.125 μg/mL, 24 h at 35 °C with 5% CO2; ATCC strain; read-out: MIC. The procedure: as §1, §2
(§6) Two antibiotics, ampicillin and tetracycline, were included as a positive control for bacteria, and the antifungal drug fluconazole for fungi. A well containing cells and media only was used as a “no drug” control to ensure that cultures grew normally. Bacteria were subcultured on Mueller Hinton agar (MHA) or Sheep blood agar (BA) for 24 hours at 35 °C for Staphylococcus spp., Pseudomonas spp., Enterococcus spp. and E.coli, with 5% CO2 for Streptococcus spp., K.pneumoniae, P.multocida, L.monocytogenes and N.asteroides. Similarly, fungi were subcultured on Sabouraud agar (SAB) at 35 °C for 24 hours prior to the test. Colonies were resuspended in saline and the OD530 measured with a McFarland reader. If necessary the suspension was diluted to 0.45-0.55 McFarland units with saline. Following a 1:150 dilution for bacteria and twostep dilution for fungi (1:50, 1:20), 100 μL of microorganisms (1x106 – 5 x10^5 cells/mL) were pipetted into wells 2-12, the first well acting as a negative control. Colony counts were performed using a 1:1000 dilution for bacteria and 1:10 for fungi spread onto MHA/BA or SAB plates respectively. The 96 well microdilution and agar plates were incubated for 24 hours at 35 °C (Escherichia coli, Staphylococcus spp., Enterococcus spp. and Pseudomonas spp.), with 5% CO2 (Streptococcus spp. Pasteurella multocida, Klebsiella pneumoniae, Listeria monocytogenes a nd Nocardia asteroids) for bacteria, and 35 °C for 48 hours (Candida spp .) or 72 hours (Cryptococcus spp.) for fungi. Assays Antimicrobial activity was expressed as minimum inhibitory concentration (MIC), which was defined as the lowest concentration of cathelicidin preventing visible growth, relative to the negative control. […]
(§7) DMEM and positive control of dimethylsulfoxide (DMSO) (1%) were also included. […]
(§8) 570nm and 620nm using the Victor 3 multilabel plate reader (PerkinElmer). The assay was performed on two separate occasions. To x i city of cathelicidins was calculated according to Invitrogen recommendations and expressed as percentage cell survival compared to the untreated growth control. A significant difference between cathelicidin treated and control cell survival was tested using a o ne sample t-test (p<0.05).
(§9) Haemolytic activity was assessed using 10mL of human blood collected into potassium -ED T A vacutainers (BD). The blood was washed three times with 30mL of calcium and magnesium -free Dulbecco’s phosphate buffered saline (DPBS) and cells were collected by centrifugation at 2000 x g […]
(§10) for 10 minutes. […]

For data set [1], the system named is C. parapsilosis ATCC 22019. The data set can be described thus: microbe, parasite or virus in culture. In kind it is cell-based. As to conditions: Lodderomyces parapsilosis, ATCC22019; broth microdilution (CLSI), YNB, 64 to 0.125 μg/mL, 48 hours at 35 °C; ATCC strain; read-out: MIC. The procedure:
as §1, §2, §6, §7, §8, §9, §10

For a further data set, the system named is S. aureus ATCC 29213. Kind of data set: microbe, parasite or virus in culture. In kind it is cell-based, Staphylococcus aureus. Particulars: Staphylococcus aureus, ATCC29213; broth microdilution (CLSI), 64 to 0.125 μg/mL, 24 h at 35 °C; ATCC strain; read-out: MIC. The procedure:
as §1, §2, §3, §4, §5

The subject of another data set is P. aeruginosa ATCC 27853. Kind of data set: microbe, parasite or virus in culture. The class given is cell-based, Pseudomonas aeruginosa. Particulars: Pseudomonas aeruginosa, ATCC27853; broth microdilution (CLSI), 64 to 0.125 μg/mL, 24 h at 35 °C; ATCC strain; read-out: MIC. The procedure: as §1, §2, §3, §4, §5
Data set [2] relates to 25 bacterial and 6 fungal strains. In kind it is cell-based. As to conditions: against the bacteria and fungi tested (25 bacterial and 6 fungal strains of Table 2), broth microdilution (CLSI). The text has this: To assess the antimicrobial activity of devil cathelicidins, we tested synthesized mature peptides on 25 bacterial and 6 fungal strains (Table 2). As there were no Tasmanian devil specific isolates available, human and veterinary strains were used. The antimicrobial activity of Tasmanian devil cathelicidin mature peptides Saha-CATH1 to 6 against bacteria and fungi is summarised in Table 2. […] As such, these values are not included in Table 2. Saha-CATH3 had highly specific activity, as it was unable to kill any bacteria, but killed Cryptococcus neoformans. […]
Tissue expression of devil cathelicidin prepropeptides was determined by real-time PCR on a range of secretory, immune, reproductive, gastrointestinal and respiratory tissues, as well as BLAST searches of the milk transcriptome. […] The mature peptides of all six devil cathelicidins were synthesised by ChinaPeptides Co. Ltd. and their antimicrobial activity against bacterial and fungal pathogens determined by broth microdilution susceptibility assay according to clinical laboratory standards institute guidelines. Antimicrobial activity was expressed as minimum inhibitory concentration (MIC). Cytotoxicity was assessed in the human cell line A549 and haemolytic activity determined against human blood. Statistical significance of peptide effect on cell survival in comparison to the untreated control was calculated using a one sample t-test. […]

Converted amounts (≈) assume the structure as drawn. Where a SMILES comes first, the peptide text is derived from it. Where no end group is shown, it is not given here.

For the molecule `CC[C@H](C)[C@H](NC(=O)CN)C(=O)N[C@@H](CCCCN)C(=O)N[C@@H](Cc1c[nH]cn1)C(=O)N[C@H](C(=O)N[C@@H](CC(C)C)C(=O)N[C@@H](Cc1ccccc1)C(=O)N[C@@H](CCSC)C(=O)N[C@@H](C)C(=O)N[C@@H](CCCCN)C(=O)N[C@H](C(=O)N[C@@H](CCCCN)C(=O)N[C@@H](CC(C)C)C(=O)N1CCC[C@H]1C(=O)N[C@@H](CCCNC(=N)N)C(=O)N[C@@H](C)C(=O)N[C@H](C(=O)N[C@@H](CS)C(=O)N[C@H](C(=O)N[C@@H](C)C(=O)N[C@@H](CCC(=O)O)C(=O)N[C@H](C(=O)N[C@@H](CCCCN)C(=O)N[C@@H](CCC(=O)O)C(=O)N[C@@H](CC(N)=O)C(=O)N[C@@H](CS)C(=O)N[C@@H](CC(=O)O)C(=O)N[C@@H](CCCNC(=N)N)C(=O)N[C@@H](CCCCN)C(=O)N[C@@H](CCCCN)C(=O)O)[C@@H](C)CC)[C@@H](C)O)[C@@H](C)O)[C@@H](C)O)[C@@H](C)CC` [Saha-CATH1] (H-GIKHILFMAKTKLPRATCTAEIKENCDRKK-OH; N-terminus and C-terminus assumed), the “haemolysis compared with the positive control” value in the data set on human red blood cells was “below 7%”.

Regarding `CC1(C)S[C@@H]2[C@H](NC(=O)[C@H](N)c3ccccc3)C(=O)N2[C@H]1C(=O)O` [ampicillin, reference compound], the MIC in the data set on E. coli ATCC 25922 amounted to 8 µg/mL (≈ 22.9 µM); with E. faecalis ATCC 29212, 1 µg/mL (≈ 2.86 µM); with S. pneumoniae ATCC 49619, 0.125 µg/mL (≈ 0.358 µM).

For the molecule `OC(Cn1cncn1)(Cn1cncn1)c1ccc(F)cc1F` [fluconazole, reference compound], the MIC in data set [1] stood at 2 µg/mL (≈ 6.53 µM).

Consider `CN(C)[C@@H]1C(O)=C(C(N)=O)C(=O)[C@@]2(O)C(O)=C3C(=O)c4c(O)cccc4[C@@](C)(O)[C@H]3C[C@@H]12` [tetracycline, reference compound], for which the MIC turned out to be 0.125 µg/mL (≈ 0.281 µM) in the data set with S. aureus ATCC 29213 and 8 µg/mL (≈ 18 µM) in the data set with P. aeruginosa ATCC 27853.

“KREDFLDQIIRDFRNFIYQKYRRLRDEFRKLRDILSG [Saha-CATH4]”: in data set [2], the “minimum inhibitory concentration (MIC)” value is reported as “greater than 64 μg/mL”. For the same molecule, in the data set with human red blood cells, the “haemolysis compared with the positive control” value was “below 7%”.

Turning to “TFKRKNGSRKNGHRPGGYSLIALGNKKVLKAPYMESI [Saha-CATH2]”, in data set [2], the “minimum inhibitory concentration (MIC)” value is given as “greater than 64 μg/mL”. Further, the “haemolysis compared with the positive control” value in the data set with human red blood cells is given as “below 7%”.
